We go through six molecules from article PMC4982073, “Structural and kinetic studies on RosA, the enzyme catalysing the methylation of 8‐demethyl‐8‐amino‐D‐riboflavin to the antibiotic roseoflavin” (The Febs Journal, 2016).

Where two headings read alike, the source gives them in different places.

As usually defined, the stoichiometry N is the number of molecules, sites or subunits per partner or assembly. What is called Ki is the equilibrium dissociation constant of an inhibitor or competing ligand from its target. What is called Km is the concentration of substrate that gives half-maximal velocity. Usually kcat stands for the number of substrate molecules converted per active site and unit of time at saturation.

Data set [1] concerns the target N,N‐8‐demethyl‐8‐amino‐D‐riboflavin dimethyltransferase (RosA), hexahistidine‐tagged (Streptomyces davawensis). In words: SEC; Superdex 200 10/300 GL, 25 °C, 50 mM Tris-HCl pH 8.0 with 100 mM NaCl, 0.5 mL/min, calibrated with standard proteins; native mass about 77 kDa against a subunit mass of 38 kDa. In general terms: Size exclusion chromatography separates by hydrodynamic size, large species first.

The target in data set [2] is T1, RosA (N,N-8-demethyl-8-amino-D-riboflavin dimethyltransferase) (Streptomyces davaonensis, UniProt K4RFM2).
T1 construct: full length, hexahistidine-tagged (pET24a(+)rosA-His6, pFJ02), tag kept, E. coli Rosetta 2 (DE3); 353 amino acids; subunit 38 kDa, native 77 kDa, homodimer
In words: isothermal titration calorimetry. In kind it is binding. The source says:
isothermal titration calorimetry on RosA (N,N-8-demethyl-8-amino-D-riboflavin dimethyltransferase)
A general note: In ITC the heat of successive injections is recorded.

Data set [3] has as its target T1, RosA (N,N-8-demethyl-8-amino-D-riboflavin dimethyltransferase). In words: initial rates of RoF formation at […] nm, Henderson plot (tight-binding inhibition). In kind it is biochemical.
Substrate in data set [4]: Cc1cc2nc3c(=O)[nH]c(=O)nc-3n(C[C@H](O)[C@H](O)[C@H](O)CO)c2cc1N
The data set can be described thus: purified protein. Type of data set: biochemical, Streptomyces davaonensis. Conditions: varied SAM (20-250 μM), 50 mM Tris/HCl pH 8.0, 100 mM NaCl, 25 °C, random-order bi-bi.

Substrate in data set [5]: C[S+](CC[C@H](N)C(=O)O)C[C@H]1O[C@@H](n2cnc3c(N)ncnc32)[C@H](O)[C@@H]1O
The data set can be described thus: purified protein. Conditions: varied AF (20-100 μM), 50 mM Tris/HCl pH 8.0, 100 mM NaCl, 25 °C, random-order bi-bi.

Molecule “N,N‐8‐demethyl‐8‐amino‐D‐riboflavin dimethyltransferase (RosA), hexahistidine‐tagged (enzyme)” yielded a stoichiometry N in data set [1] of 2.

With `C[S+](CC[C@H](N)C(=O)O)C[C@H]1O[C@@H](n2cnc3c(N)ncnc32)[C@H](O)[C@@H]1O` (some centres unmarked) [SAM], the Kd in data set [2] amounted to 22 ± 2 µM.

`Cc1cc2nc3c(=O)[nH]c(=O)nc-3n(C[C@H](O)[C@H](O)[C@H](O)CO)c2cc1N(C)C` [RoF] gave a Ki in data set [3] of 27 µM. Moreover, the Kd in data set [2] (read-out: RoF) came to 0.8 ± 0.05 µM.

As to `Cc1cc2nc3c(=O)[nH]c(=O)nc-3n(C[C@H](O)[C@H](O)[C@H](O)CO)c2cc1N` [AF], the Kd in data set [2] (read-out: AF) was 10 ± 1 µM.

Consider `Nc1ncnc2c1ncn2[C@@H]1O[C@H](CSCC[C@H](N)C(=O)O)[C@@H](O)[C@H]1O` [SAH], for which the Ki in data set [3] turned out to be 7 µM. Moreover, in data set [2] (read-out: SAH), the Kd came out at 2 ± 0.1 µM.

B1: RosA (N,N-8-demethyl-8-amino-D-riboflavin dimethyltransferase) (Streptomyces davaonensis JCM 4913) (protein)
chain: MRPEPTEHPERTAAQRLYQYNVDLKVAFVLYAVAKLHLPDLLADGPRTTADLAAATGSDPSRLRRLLRAAAGADALREVPEDSFELAPMGDLLRSGHPRSMRGMTTFFAEPDVLAAYGDLVESVRTGVPAFQLRHREPLYDFLARPQHKEVRDEFDAAMVEFGQYFADDFLTSFDFGRFTRFADIGGGRGQFLAGVLTAVPSSTGVLVDGPAVAASAHKFLASQNLTERVEVRIGDFFDVLPTGCDAYVLRGVLEDWADADAVRLLVRIRQAMGDAPEARLLILDSVIGETGELGKVLDLDMLVLVEGEHRTRAQWDDLLARAGFDIVGIHPAGDVWAVIECRGTAG
notes: full length, hexahistidine-tagged (pET24a(+)rosA-His6, pFJ02), tag kept, E. coli Rosetta 2 (DE3); 353 amino acids; subunit 38 kDa, native 77 kDa, homodimer
With B1, in “purified protein [4]”, the Km was 4 µM and the kcat stood at 0.001 s⁻¹. Besides, in the data set “purified protein [5]”, the Km was 70 µM and the catalytic constant (kcat) turned out to be 0.001 s⁻¹.
